# Data: patent US9663473B2 (Actelion Pharmaceuticals Ltd, priority 2013, dated 2017)
# Assays:
# [1] = test system: collagen-induced arthritis; details: in vivo; cited from earlier work
# [2] = test system: human fibroblast-like synoviocytes; details: cited from earlier work
# ALXR = target: T1, ALXR (Homo sapiens, UniProt P25090); details: cited from earlier work
# T1 sequence (P25090 1-351): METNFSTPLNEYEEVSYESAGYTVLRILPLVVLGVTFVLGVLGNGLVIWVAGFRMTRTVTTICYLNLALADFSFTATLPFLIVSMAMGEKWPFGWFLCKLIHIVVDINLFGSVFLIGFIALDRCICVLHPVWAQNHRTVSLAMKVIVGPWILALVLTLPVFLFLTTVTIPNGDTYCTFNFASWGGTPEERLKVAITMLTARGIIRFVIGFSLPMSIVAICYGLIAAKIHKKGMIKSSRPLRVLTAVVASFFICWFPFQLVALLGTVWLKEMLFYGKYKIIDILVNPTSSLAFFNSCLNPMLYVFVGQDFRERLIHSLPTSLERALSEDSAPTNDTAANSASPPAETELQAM
# dry corneal surface = details: topical treatment; cited from earlier work
# [3] = test system: models of Alzheimer's Disease; details: cited from earlier work
# [4] = target: T2, recombinant human ALX receptor (Homo sapiens, UniProt P25090); experiment: Intracellular calcium measurements (FLIPR), ALX receptor agonistic activity; type: cell-based; details: HEK293-hALXR-Gα16 cells, Fluo-4 calcium signal, normalized to WKYMVm 10 nM
# T2 construct: expressed in transfected cells; host or cells: HEK293 (HEK293-hALXR-Gα16)
# T2 sequence (P25090 1-351): T1 sequence (P25090 1-351)
# In short: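 HEK293 cells co-expressing human ALX receptor and Gα16 were loaded with 1 μM Fluo-4 AM for 60 min at 37° C., then exposed to serially diluted compounds on FLIPR Tetra. Peak fluorescence above baseline (ex 488/em 540 nm) was normalized to 10 nM WKYMVm as high control.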
molecule,measurement,setting,value
COC(=O)CCC[C@H](O)[C@H](O)CO [BML-111],severity of collagen-induced arthritis,[1],reduced the severity of collagen-induced arthritis
"CCCCC[C@H](O)/C=C/C=C\C=C\C=C\[C@@H](O)[C@@H](O)CCCC(=O)O [Lipoxin A4, lipoxin A4]",IL-6 expression,[2],inhibited IL-6 expression
same,binding to ALXR,ALXR,high affinity
same,re-epithelization and inflammation of the dry corneal surface,dry corneal surface,increases re-epithelization and decreases inflammation of the dry corneal surface
"humanin: high-affinity ligand for FPR2, neuroprotective in models of Alzheimer's Disease (MAPRGFSCLLLLTSEIDLPVKRRA; Humanin; UniProt Q8IVG9 1-24, looked up)",neuroprotection,[3],neuroprotective
"1-(1-(1H-Benzo[d]imidazol-2-yl)-2-(3,5-difluoro-4-methoxyphenyl)ethyl)-3-(4-hydroxybicyclo[2.2.2]octan-1-yl)urea [Example 242]",EC50,[4],70 nM
"COc1ccc(C[C@@H](NC(=O)N[C@H](CO)Cc2ccccc2)c2nc3ccccc3[nH]2)cc1 [Example 212, 1-((R)-1-(1H-Benzo[d]imidazol-2-yl)-2-(4-methoxyphenyl)ethyl)-3-((S)-1-hydroxy-3-phenylpropan-2-yl)urea]",EC50,[4],2.8 nM
"COc1ccc(C[C@@H](NC(=O)NC2CCN(CCF)CC2)c2nc3ccccc3[nH]2)cc1 [Example 181, (R)-1-(1-(1H-Benzo[d]imidazol-2-yl)-2-(4-methoxyphenyl)ethyl)-3-(1-(2-fluoroethyl)piperidin-4-yl)urea]",EC50,[4],88 nM
"COc1ccc(C[C@@H](NC(=O)N2CCC3C2CCN3C(=O)OC(C)(C)C)c2nc3ccccc3[nH]2)cc1 (stereo partly drawn) [Example 121, tert-Butyl 4-(((R)-1-(1H-benzo[d]imidazol-2-yl)-2-(4-methoxyphenyl)ethyl)carbamoyl)hexahydropyrrolo[3,2-b]pyrrole-1 (2H)-carboxylate]",EC50,[4],704 nM
